Experimental data reported in patent US10343903B2, “Cationic polymer coated mesoporous silica nanoparticles and uses thereof” (The Regents of the University of California, priority 2010, dated 2019).

Assays:
[1] = Body weight and major organ histology (Example 8); format: in vivo, nude mice; conditions: weekly i.v. for 3 weeks
Method: (§1) Nude mouse studies to determine the effect of doxorubicin-loaded NP3 on tumor shrinkage. One week after tumor implantation, the KB-31 tumor-bearing mice were randomly divided into four groups of five animals each. These groups were used for comparing the effects of saline, empty nanoparticles, free doxorubicin, and doxorubicin-loaded NP3, respectively. The latter group received intravenous administration of 120 mg/kg (˜2.4 mg per animal) NP3, which is equivalent to a doxorubicin dose of 4 mg/kg (˜0.08 mg per animal), weekly for 3 weeks. The free doxorubicin group received the same drug dose weekly for 3 weeks, while the group receiving empty NP3 was treated with 120 mg/kg on a weekly basis. The fourth group was treated with saline as control. The body weight and tumor size were accurately recorded twice per week. Tumor weight was calculated according to the formula: Tumor weight (mg)=(length in mm)× (width in mm)^2/2 (Meng et al., ACS Nano, vol. 4, pp. 2773-2783, 2010).
Appropriate size sections of the tumor, liver, kidney, spleen, lung, heart, and brain were fixed in 10% formalin and then embedded into paraffin. Tissue sections of 4 μm thickness were mounted on glass slides by the UCLA Division of Laboratory Animal Medicine (DLAM) diagnostic laboratory services. The sections were stained with hematoxylin-eosin (H&E) and examined by light microscopy. The slides were read by an experienced veterinary pathologist.

[2] = test system: KB-31 cells; test: MTS cytotoxicity of free Dox, KB-31; format: cell-based; conditions: KB-31, free Dox, 72 hrs
Method: (§2) KB-31 and KB-V1 cells were plated at 1×10^4 cells per well in 96 well plate. The cells were treated with free Dox in solution in doses ranging from 0.05-3.2 μg/ml (KB-31) and 0.1-64 μg/ml (KB-V1) for 72 hrs. The cell viability was determined by the MTS assay. The treated cells were incubated with MTS working solution for 2-3 hrs before measurement. The mean absorbance of non-exposed cells served as the reference value for calculating 100% cellular viability. To view Pgp expression, the cells were washed in PBS and the pellets lysed in a buffer containing Triton X-100 and protease inhibitors after centrifugation. The protein content of the supernatants was determined by the Bradford method. 100 μg total protein was electrophoresed by 10% SOS-PAGE and transferred to a PVDF membrane. After blocking, the membranes were incubated with 1:1000 dilution of primary monoclonal antibody to MDR1 (anti-Pgp C219, Abeam). The membranes were overlayed with goat anti-mouse secondary antibody (1:1000 dilution) before the addition of the HRP-conjugated streptavidin-biotin complex. The proteins were detected using ECL reagent according to the manufacturer's instructions.

[3] = test system: KB-31 tumor xenograft; test: TUNEL staining of the tumor tissue; format: in vivo, nude mice; conditions: 4 mg/kg doxorubicin i.v. weekly for 3 weeks
Method: A section of the tumor from each animal was used for TUNEL staining. The slides containing the tumor section were washed, fixed, and permeabilized before performance of TUNEL staining according to the manufacturer's instructions (Invitrogen, Carlsbad, Calif.). Nuclei were stained by Hoechst 33342 dye. The number of TUNEL positive cells (green staining) was assessed under a fluorescent microscope (200×). The same sections were also used for recording of the red fluorescent images of the doxorubicin that was present in the particles or the tissues. At least three fields were counted by the same investigator to calculate the percentage of TUNEL positive cells.

[4] = test system: KB-31 tumor xenograft; test: Tumor growth inhibition by doxorubicin-loaded NP3; format: in vivo, nude mice; conditions: 4 mg/kg doxorubicin i.v. weekly for 3 weeks, tumor weight at sacrifice
Method: Athymic BALB/c nu/nu female mice (6 weeks) were purchased from the Charles River Laboratory, and maintained under pathogen-free conditions. All animal experiments were performed using protocols approved by the UCLA Animal Research Committee. The tumor cell suspension (0.1 ml, 5×10^6 cells/mL) was injected subcutaneously into the mice. To perform imaging, the tumor-bearing animals were used 2.5 weeks after tumor implantation. In the tumor growth inhibition experiments, the nude mice were randomly divided into 4 groups and received the listed range of treatments, which commenced 1 week after tumor implantation.
as §1, with “The free doxorubicin group received the same drug dose weekly for 3 weeks, while the group receiving empty NP3 was treated with 120 mg/kg on a weekly basis. The fourth group was treated with saline as control.” left out

[5] = Blood biochemistry to assess possible toxicity (Example 8); format: in vivo; conditions: serum, tumor-bearing nude mice, weekly i.v. for 3 weeks, day 21
Method: as §1
Following the animal experiments described above, the mice were sacrificed on 21st day and serum collected by centrifuging the whole blood at 5,000 rpm for 15 min. The biochemical parameters, including cholesterol (CHOL), triglycerides (TRG), alanine aminotransferase (ALT), aspartate aminotransferase (AST), total bilirubin (TBILI), glucose (GLU), inorganic phosphorus (PHOS), total protein (TPR), calcium (CAL), blood urea nitrogen (BUN), creatinine (CRE), and albumin (ALB) were assayed by UCLA Division of Laboratory Animal Medicine (DLAM) diagnostic laboratory services.

[6] = test system: KB-V1 cells; test: MTS cytotoxicity of free Dox, KB-V1; format: cell-based; conditions: 72 hrs
Method: as §2

[7] = cited from earlier work
[8] = test system: KB-V1 cells; test: Cytotoxicity of Dox formulations in KB-V1 cells (MTS, 72 hrs); format: cell-based; conditions: KB-V1, Tariquidar 50 nM
Method: To measure cytotoxicity of the different Dox formulations, KB-V1 cells were treated with free Dox, Dox-MSNP, PEI-Dox-MSNP and siRNA-PEI-Dox-MSNP, respectively. For the latter two particle types, incubation time was for 16 hrs before replenishment of the old medium with fresh complete DMEM and performance of a MTS assay at 72 hrs. Based on the absorption readout at 490 nm, the IC50 of free and Dox-loaded MSNP were calculated. The induction of apoptosis at 72 hours was assessed through the use of Annexin V-SYTOX Blue. Briefly, 5×10^5 cells were harvested and stained by FITC-Annexin V-SYTOX Blue working solution (Annexin V, Trevigen; SYTOX Blue, Invitrogen) at room temperature for 15 min. The cells were washed in binding buffer before performance of flow cytometry (Becton Dickinson, Mountain View, Calif.). Date analysis was performed by BD CellQuest. To confirm the flow data in which there may be a minor overlap of Dox with FITC-Annexin V, a TUNEL detection kit was used according to the manufacturer's instructions to confirm the induction of apoptosis. Briefly, 72 hrs following treatment with free Dox or Dox loaded particles, cells were washed, fixed, and permeabilized before TUNEL staining. The number of TUNEL-positive cells was assessed under a fluorescent microscope (200×). At least 3 fields were counted by the same investigator to calculate the percentage of TUNEL positive cells.

COc1cccc2c1C(=O)c1c(O)c3c(c(O)c1C2=O)C[C@@](O)(C(=O)CO)C[C@@H]3O[C@H]1C[C@H](N)[C@H](O)[C@H](C)O1.Cl [Free Dox, doxorubicin hydrochloride]
kidney histology ([1]; H&E): glomerular swelling | liver histology ([1]; H&E): prominent hepatic steatosis | body weight ([1]; compared to saline): cyclical decrease in body weight | IC50 (MTS) [2]: 0.21 µg/mL | TUNEL-positive cells in tumor tissue [3]: ~13% | tumor inhibition [4]: 70% | ALB [5]: 2.4 ± 0.2 g/dL | ALT [5]: 36.8 ± 8.0 u/L | AST [5]: 347.8 ± 73.9 U/L | BUN [5]: 17.3 ± 2.6 mg/dL | CAL [5]: 9.0 ± 0.5 mg/dL | CHOL [5]: 97.8 ± 12.8 mg/dL | CRE [5]: 0.3 ± 0.1 mg/dL | GLU [5]: 102.5 ± 29.2 mg/dL | PHOS [5]: 9.5 ± 0.8 mg/dL | TBIL [5]: 0.4 ± 0.0 mg/dL | TPR [5]: 5.0 ± 0.4 g/dL | TRG [5]: 91.5 ± 21.2 mg/dL | IC50 (MTS) [6]: 53.0 µg/mL | pKa [7]: 8.2

CCOc1ccc(-c2nc3ccc(-c4nc5ccc(N6CCN(C)CC6)cc5[nH]4)cc3[nH]2)cc1 [Hoechst 33342]
pKa [7]: 11.9

COc1cc2c(cc1OC)CN(CCc1ccc(NC(=O)c3cc(OC)c(OC)cc3NC(=O)c3cnc4ccccc4c3)cc1)CC2 [Tariquidar]
effect of co-administration with free Dox on drug sensitivity [8]: partially restores drug sensitivity
